Legend:
[1] = Evaluation of brain penetration in mice; format: in vivo, mouse; details: C57BL/6J mice; for Concentration in brain (mean ± SD) at brain Cmax: Test 2: 0.2 mg/kg single oral dose, n=3
Method: The administration solution was administered orally to C57BL/6J mice (8 weeks old, male, n=3) at a single dose (1 mg/kg). Mice were euthanized at 6 points of 0.25, 0.5, 1, 2, 4, and 8 hours after administration, and plasma and brain sampling were performed. After preparing a homogenate from the collected brain using Tissue Lyser II (QIAGEN #85300), acetonitrile was added to the homogenate and the homogenate was centrifuged (12000 rpm, 5 minutes) to extract the administered test compound contained in the brain. Similarly, the plasma was subjected to addition of acetonitrile and centrifugal separation to extract the administered test compound contained in the plasma. Each extracted sample was subjected to measurement of the concentration of administered test compound using LC/MS/MS (SHIMADZU UFLC/MS/MS (8050)).
The administration solution was administered orally to C57BL/6J mice (8 weeks old, male, n=3) at a single dose (0.2 mg/kg). Mice were euthanized at 6 points of 0.25, 0.5, 1, 2, 4, and 8 hours after administration, and plasma and brain sampling were performed. After preparing a homogenate from the collected brain using Tissue Lyser II (QIAGEN #85300), acetonitrile was added to the homogenate and the homogenate was centrifuged (12000 rpm, 5 minutes) to extract the administered compound contained in the brain. Similarly, the plasma was subjected to addition of acetonitrile and centrifugal separation to extract the administered test compound contained in the plasma. Each extracted sample was subjected to measurement of the concentration of administered test compound using LC/MS/MS (SHIMADZU UFLC/MS/MS (8050)).

[2] = Evaluation of calcium increasing action in normal mice; details: 2 weeks; for Serum calcium conc.: C57BL/6J mice, Vehicle 8.9
Method: After acclimatizing C57BL/6J mice (7 weeks old, male) for 1 week, the mice were divided into groups of 5 mice based on the body weight, and administration of the compound or vehicle was started. The administration solution used was a compound (in ethanol) or ethanol diluted 100-fold with 0.1% Trion X-100 (SIGMA #X100-100 ML)/saline, and the repeated oral administration at once a day was performed. After administration of 2 weeks, euthanasia was performed by collecting all blood under general anesthesia.

[3] = test system: mouse experimental autoimmune encephalomyelitis model; assay: Combination therapy with the vitamin D derivative and an immunosuppressant (fingolimod) in mouse experimental autoimmune encephalomyelitis model; format: in vivo; details: for clinical score on the day after final administration (Day 30): oral once a day, two weeks
Method: Using a mouse experimental autoimmune encephalomyelitis model, we evaluated the efficacy of the vitamin D derivative of the present invention in combination with fingolimod (an immunosuppressant) approved as a therapeutic drug for multiple sclerosis.
A mouse experimental autoimmune encephalomyelitis model was generated using the Hooke Kit MOG35-55/CFA Emulsion PTX (Cosmo Bio #EK-2110). C57BL/6J mice (11 weeks old, female) were anesthetized with 2.5% isoflurane inhalation and administered 0.1 mL of MOG35-55-CFA subcutaneously to the back and base of the tail, and then two hours later, administered 0.1 mL of pertussis toxin (PTX) intraperitoneally for the initial immunization. One day after the first immunization, 0.1 mL of PTX was administered intraperitoneally again. After the first immunization, clinical scores were measured once a day based on the following criteria. • 0 No abnormality • 0.5 Decrease in tension at the tip of the tail • 1.0 Limp tail • 1.5 Limp tail, and weakness of one hind limb • 2.0 Limp tail, and weakness of both hind limbs with abnormal gait • 2.5 Limp tail, and partial paralysis of one hind limb or abnormal righting reflex • 3.0 Limp tail, and partial paralysis of both hind limbs • 3.5 Limp tail, and paralysis of one hind limb • 4.0 Limp tail, and paralyses of both hind limbs • 4.5 Limp tail, paralyses of both hind legs, and weakness of one forelimb • 5.0 Limp tail, paralyses of both hind limbs, and weakness of both forelimbs (moribund)
Sixteen days after the first immunization, the disease-induced groups were divided into six groups of eight mice each based on the clinical scores, and administration of the compound (D023 6 g/kg) or vehicle was started. […] Two weeks after administration, the mice were euthanized and their spinal cords and whole blood were collected. The intact group indicates a non-treated group.

[4] = test system: rat oligodendrocyte progenitor cells; assay: Promotive activity of rat oligodendrocyte progenitor cell differentiation-1 (MBP gene expression, mRNA); format: cell-based; details: 96 h, read-out: promotive activity at T3 base (MBP gene expression; DMSO 0%, T3 100%)
Method: Regarding vitamin D derivatives, which was confirmed to act on the vitamin D receptor (VDR) in Example 352, the promotive activity of oligodendrocyte progenitor cell (OPC) differentiation was evaluated by MBP gene expression (mRNA).
A forebrain obtained from SD rat (Charles River Japan, 1 day old) was crushed with 70 μm Cell Strainer (Falcon #352350), and a cell suspension was prepared by collecting the cells in oligodendrocyte progenitor cell separation medium (20% FBS/2 mM Glutamax (Gibco #35050-061)/i mM sodium pyruvate (Gibco #11360-070)/1% penicillin-streptomycin (Invitrogen #15140-122)/DMEM (Gibco #11960-044)). The cell suspension was seeded in a poly-D-lysine coated T75 flask (Thermo Fisher Scientific #132704) and cultured for about 2 weeks. After culturing, the flask was shaken using a rotary shaker ([…] #WB-101SRC) for about 1 hour (37° C., 100 rpm), and the supernatant was discarded to remove microglia. Subsequently, oligodendrocyte progenitor cell separation medium was added to the flask, and the mixture was similarly shaken for about 22 hours (37° C., 200 rpm), and the supernatant was collected to prepare oligodendrocyte progenitor cells. […]

[5] = compound D023 + fingolimod 0.1 mg/kg (Combination L) vs single group of fingolimod 0.1 mg/kg
[6] = compound D023 + fingolimod 1.0 mg/kg (Combination H) vs single group of fingolimod 1.0 mg/kg

Concentration in brain (mean ± SD) at brain Cmax [1] [pmol/g]	Calcium conc. Fluctuation range ([2]; 20 μg/kg oral once a day) [mg/dL]	Serum calcium conc. ([2]; 20 μg/kg oral once a day) [mg/dL]	Calcium conc. Fluctuation range ([2]; 60 μg/kg oral once a day) [mg/dL]	Serum calcium conc. ([2]; 60 μg/kg oral once a day) [mg/dL]	Calcium conc. Fluctuation range ([2]; 200 μg/kg oral once a day) [mg/dL]	Serum calcium conc. ([2]; 200 μg/kg oral once a day) [mg/dL]	Compound	further results
140.8 ± 17.6	0.2	9.1	0.2	9.1	0.1	9.0	C[C@H](CN1CCOC[C@H]1C)[C@H]1CC[C@H]2/C(=C/C=C3C[C@@H](O)C[C@H](O)C3)CCC[C@]12C [Compound G005, (1R,3R)-5-(2-((1R,3aS,7aR,E)-7a-methyl-1-((S)-1-((R)-3-methylmorpholino)propan-2-yl)octahydro-4H-inden-4-ylidene)ethylidene)cyclohexane-1,3-diol]	–
–	–	–	–	–	–	–	C[C@H](CCN1CCOCC1)[C@H]1CC[C@H]2/C(=C/C=C3C[C@@H](O)C[C@H](O)C3)CCC[C@]12C [Compound D023, (1R,3R)-5-(2-((1R,3aS,7aR,E)-7a-methyl-1-((R)-4-morpholinobutan-2-yl)octahydro-4H-inden-4-ylidene)ethylidene)cyclohexane-1,3-diol]	blood lymphocyte count on the day after final administration (Day 30) [3, 5]: no significant difference; clinical score on the day after final administration (Day 30) [3, 5]: significantly lower clinical score; blood lymphocyte count on the day after final administration (Day 30) [3, 6]: neither was there a significant difference; clinical score on the day after final administration (Day 30) [3, 6]: significantly lower clinical score
137.8 ± 11.5	0	8.9	0	8.9	-0.3	8.6	C[C@H](CN1CCOCC1(C)C)[C@H]1CC[C@H]2/C(=C/C=C3C[C@@H](O)C[C@H](O)C3)CCC[C@]12C [Compound G006, (1R,3R)-5-(2-((1R,3aS,7aR,E)-1-((S)-1-(3,3-dimethylmorpholino)propan-2-yl)-7a-methyloctahydro-4H-inden-4-ylidene)ethylidene)cyclohexane-1,3-diol]	–
–	–	–	–	–	–	–	COC1(C)CCCN(C[C@@H](C)[C@H]2CC[C@H]3/C(=C/C=C4C[C@@H](O)C[C@H](O)C4)CCC[C@]23C)C1 (stereo partly drawn) [Compound C045b, (1R,3R)-5-(2-((1R,3aS,7aR,E)-1-((2S)-1-(3-methoxy-3-methylpiperidine-1-yl)propan-2-yl)-7a-methyloctahydro-4H-inden-4-ylidene)ethylidene)cyclohexane-1,3-diol]	activation at 1 µM [4]: ≥ 20%
–	–	–	–	–	–	–	C[C@H](CN1CCOC2(CC2)C1)[C@H]1CC[C@H]2/C(=C/C=C3C[C@@H](O)C[C@H](O)C3)CCC[C@]12C [Compound D019, (1R,3R)-5-(2-((1R,3aS,7aR,E)-1-((S)-1-(4-oxa-7-azaspiro[2.5]octan-7-yl)propan-2-yl)-7a-methyloctahydro-4H-inden-4-ylidene)ethylidene)cyclohexane-1,3-diol]	Concentration ratio in brain/in blood at brain Cmax ([1]; Test 1: 1 mg/kg single oral dose): 2.89
171.2 ± 37.4	0	8.9	-0.1	8.8	0.1	9.0	C[C@H](CN1CCOC[C@@H]1C)[C@H]1CC[C@H]2/C(=C/C=C3C[C@@H](O)C[C@H](O)C3)CCC[C@]12C [Compound G004, (1R,3R)-5-(2-((1R,3aS,7aR,E)-7a-methyl-1-((S)-1-((S)-3-methylmorpholino)propan-2-yl)octahydro-4H-inden-4-ylidene)ethylidene)cyclohexane-1,3-diol]	–

Reference: patent publication US20250195488A1, “MEDICINE CONTAINING VITAMIN D DERIVATIVE OR PHARMACEUTICALLY ACCEPTABLE SALT OR SOLVATE THEREOF, USED IN COMBINATION WITH IMMUNOMODULATORY SUBSTANCE” (TEEJIN PHARMA LIMITED, priority 2022, published 2025)
